From patent US4755594A, “N^6 -substituted adenosines” (Warner-Lambert Company, priority 1986, dated 1988) come the findings set out here.

Data set [1] deals with T1, adenosine A1 receptor (Rattus norvegicus, UniProt P25099).
T1 construct: Whole brain minus cerebellum and brainstem from male Long-Evans rats; from tissue; host or cells: whole brain minus cerebellum and brainstem, male Long-Evans rats
T1 sequence (P25099 1-326): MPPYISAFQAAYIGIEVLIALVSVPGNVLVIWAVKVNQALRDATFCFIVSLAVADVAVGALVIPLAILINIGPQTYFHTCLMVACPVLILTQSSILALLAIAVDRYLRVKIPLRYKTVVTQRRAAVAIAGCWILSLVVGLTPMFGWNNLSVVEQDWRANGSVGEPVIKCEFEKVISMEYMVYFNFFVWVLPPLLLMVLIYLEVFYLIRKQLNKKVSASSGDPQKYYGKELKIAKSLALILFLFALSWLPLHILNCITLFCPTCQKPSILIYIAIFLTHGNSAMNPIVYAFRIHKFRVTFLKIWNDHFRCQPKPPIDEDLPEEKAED
Briefly: Adenosine Receptor Binding--A1 Receptor Affinity (RBA1), [3H]-CHA, whole brain membranes. As to conditions: read-out: RBA-1 IC50. The procedure:
Adenosine Receptor Binding--A1 Receptor Affinity (RBA1 )
Whole brain minus cerebellum and brainstem from male Long-Evans rats (150-200 g) was homogenized in 30 volumes of ice-cold 0.05M Tris-HCl buffer pH 7.7 using a Brinkman Polytron PT-10, (setting number 6 for 20 seconds) and centrifuged for ten minutes at 20,000 xg (Sorvall RC-2), 4° C. The supernatant was discarded, and the pellet was resuspended and centrifuged as before. The pellet was resuspended in 20 ml Tris-HCl buffer containing two International Units/ml of adenosine deaminase (Sigma type III from calf intestinal mucosa), incubated at 37° C. for 30 minutes, then subsequently at 0° C. for ten minutes. The homogenate was again centrifuged, and the final pellet was resuspended in ice-cold 0.05M Tris-HCl buffer pH 7.7 to a concentration of 20 mg/ml original wet tissue weight and used immediately.
Tissue homogenate (10 mg/ml) was incubated in 0.05M Tris-HCl buffer pH 7.7 containing 1.0 nM [^3 H]--N^6 -cyclohexyladenosine ([^3 H]--CHA) with or without test agents in triplicate for one hour at 25° C. Incubation volume was 2 ml. Unbound [^3 H]--CHA was separated by rapid filtration under reduced pressure through Whatman glass fiber (GF/B) filters. The filters were rinsed three times with 5 ml of ice cold 0.05M Tris-HCl buffer pH 7.7. The radio-labeled ligand retained on the filter was measured by liquid scintillation spectrophotometry after shaking the filters for one hour or longer on a mechanical shaker in 10 ml of Beckman Ready-Solv HP scintillation cocktail.
Nonspecific binding was defined as the binding which occurred in the presence of 1 mM theophylline. The concentration of test agent which inhibited 50% of the specific binding (IC50) was determined by nonlinear computer curve fit. The Scatchard plot was calculated by linear regression of the line obtained by plotting the amount of radioligand bound (pmoles/gram of tissue) [formula] Since the amount of radioligand bound was a small fraction of the total amount added, free radioligand was defined as the concentration of (nM) of radioligand added to the incubation mixture. The Hill coefficient was calculated by linear regression of the line obtained by plotting the log of the bound radioligand vs the log of the [formula] The maximal number of binding sites (Bmax) was calculated from the Scatchard plot.

A short description of data set [2]: Activity and screen test, rat orally: inhibition of motor activity. Type of data set: in vivo. The conditions noted are these: orally (PO).
The target in data set [3] is T2, adenosine A2 receptor (Rattus norvegicus, UniProt P30543).
T2 construct: Brains were thawed and then kept on ice while the striata were dissected out; tissue Pel-Freez (Rogers, Ark.); host or cells: striata of Sprague-Dawley rats (Long-Evans hooded rats gave essentially identical results)
Briefly: Adenosine Receptor Binding--A2 Receptor Affinity (RBA2), [3H]NECA, striatal membranes. The conditions noted are these: read-out: RBA-2 IC50. The procedure: Adenosine Receptor Binding--A2 Receptor Affinity (RBA2)
Brains from 200-500 g mixed sex Sprague-Dawley rats were purchased from Pel-Freez (Rogers, Ark.). Fresh brains from male Long-Evans hooded rats (Blue Spruce Farms, Altamont, NY) gave essentially identical results. Brains were thawed and then kept on ice while the striata were dissected out. Striata were disrupted in 10 vol of ice-cold 50 mM Tris.HCl (pH 7.7 at 25° C., pH 8.26 at 5° C.) (Tris) for 30 seconds in a Polytron PT-10 (Brinkmann) at setting 5. The suspension was centrifuged at 50,000 xg for ten minutes, the supernatant discarded, the pellet resuspended in 10 vol ice-cold Tris as above, recentrifuged, resuspended at 1 g/5ml, and stored in plastic vials at -70° C. (stable for at least six months). When needed, tissue was thawed at room temperature, disrupted in a Polytron, and kept on ice until used.
All incubations were for 60 minutes at 25° C. in 12×75 mm glass tubes containing 1 ml Tris with 5 mg original tissue weight of rat weight of rat striatal membranes, 4 nM [^3 H]--N-ethyl adenosine-5'-carboxamide ([^3 H]NECA), 50 nM N^6 -cyclopentyladenosine (to eliminate A1 receptor binding), 10 mM MgCl2, 0.1 units/ml of adenosine deaminase and 1% dimethylsulfoxide. N^6 -Cyclopentyladenosine was dissolved at 10 mM in 0.02N HCl and diluted in Tris. Stock solutions and dilutions of N^6 -cyclopentyladenosine could be stored at -20° C. for several months. Test compounds were dissolved at 10 mM in dimethylsulfoxide on the same day as the experiment, and diluted in dimethylsulfoxide to 100×the final incubation concentration. Control incubations received an equal volume (10 μl) of dimethylsulfoxide; the resulting concentration of dimethylsulfoxide had no effect on binding. [^3 H]NECA was diluted to 40 nM in Tris. The membrane suspension (5 mg/0.79 ml) contained sufficient MgCl2 and adenosine deaminase to give 10 mM and 0.1 units/ml, respectively, final concentration in the incubation. […] After all additions, the rack of tubes was vortexed, and the tubes were then incubated for 60 min at 25° C. in a shaking water bath. The rack of tubes was vortexed an additional time halfway through the incubation.
Incubations were terminated by filtration through 2.4 cm GF/B filters under reduced pressure. Each tube was filtered as follows: the contents of the tube were poured on the filter, 4 ml of ice-cold Tris were added to the tube and the contents poured onto the filter, and the filter was washed twice with 4 ml of ice-cold Tris. The filtration was complete in about twelve seconds. Filters were put in scintillation vials, 8 ml of Formula 947 scintillation fluid added, and the vials left overnight, shaken, and counted in a liquid scintillation counter at 40% efficiency.
Nonspecific binding was defined as binding in the presence of 100 μM N^6 -cyclopentyladenosine, and specific binding was defined as total binding minus nonspecific binding. The IC50 was calculated by weighted nonlinear least squares curve-fitting to the mass-action equation. [formula] where Y is cpm bound
T is cpm total binding without drug
S is cpm specific binding without drug
D is the concentration of drug and
K is the IC50 of the drug
Weighting factors were calculated under the assumption that the standard deviation was proportional to the predicted value of Y. Nonspecific binding was treated as a very large (infinite) concentration of drug in the computer analysis.

A short description of data set [4]: Activity and screen test, rat orally: screen test. It is filed as in vivo. The conditions noted are these: orally (PO). The method, then:
A two part testing procedure is started one hour postinjection. First, the screen test (ST) is performed (see Pharmac. Biochem. Behav. 6, 351-353, 1977). Briefly this test consists of placing mice on individual wire screens which are then rotated 180 degrees at the start of a 60 second observation period. The number of mice falling off the inverted screen is recorded.
The data obtained from the screen test are expressed as percent of mice falling off the screen. Data derived from locomotor activity of drug treated mice are compared to the activity of vehicle treated animals and are expressed as percent inhibition of spontaneous locomotion. All percentages reported for inhibition of locomotion (LI) are based upon data accumulated for one hour. Both phases of testing are graded: A=60-100%; C=31-59%; and N=0-30%. An overall dose rating is obtained by the following criteria: […]

Structures are written as SMILES.

T2 sequence (P30543 whole entry): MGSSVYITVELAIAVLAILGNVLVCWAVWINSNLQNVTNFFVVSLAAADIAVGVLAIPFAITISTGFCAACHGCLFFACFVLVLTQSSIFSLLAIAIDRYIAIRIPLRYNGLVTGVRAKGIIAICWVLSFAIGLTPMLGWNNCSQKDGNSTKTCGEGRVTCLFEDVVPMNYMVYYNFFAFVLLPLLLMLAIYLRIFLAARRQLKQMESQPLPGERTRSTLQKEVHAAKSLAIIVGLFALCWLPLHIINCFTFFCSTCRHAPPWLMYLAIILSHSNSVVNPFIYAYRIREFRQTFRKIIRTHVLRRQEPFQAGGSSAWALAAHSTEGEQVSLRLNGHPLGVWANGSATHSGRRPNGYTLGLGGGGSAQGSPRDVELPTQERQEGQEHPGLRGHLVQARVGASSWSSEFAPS

Usually IC50 stands for the concentration that inhibits the measured activity by half. Regarding `[O-][n+]1cnc2c(ncn2[C@@H]2O[C@H](CO)[C@@H](O)[C@H]2O)c1NCC1(c2ccccc2)CC1` [Example 4, N6-((1-Phenylcyclopropyl)methyl)adenosine-N1-oxide], the values for the IC50 in data set [1] and in data set [3] were 6.5 µM and 35 µM, respectively. Also, the “Inhibition of motor activity” value in data set [2] (1 mg/kg) is recorded as 2%; in data set [2] (3 mg/kg) it was 15%; in data set [2] (10 mg/kg), 2%. The “Inhibition of screen test failure” value was determined as 11% in data set [4] (1 mg/kg), 0% in data set [4] (3 mg/kg) and 0% in data set [4] (10 mg/kg).
